Here are results for 22 compounds from patent US20230416268A1, “PYRIMIDINONE-CONTAINING 17-BETA-HYDROXYSTEROID DEHYDROGENASE TYPE 13 INHIBITORS” (ENANTA PHARMACEUTICALS, INC., priority 2022, published 2023).

What is called pIC50 is the IC50 on a negative log10 scale, so that one unit is a factor of ten.

The structures appear in SMILES notation. pIC50: −log10 of the molar value. Where only a bound is given, the exact number is not on record here.

Chain of Recombinant human 17β-HSD13 (Q7Z5P4 20-300): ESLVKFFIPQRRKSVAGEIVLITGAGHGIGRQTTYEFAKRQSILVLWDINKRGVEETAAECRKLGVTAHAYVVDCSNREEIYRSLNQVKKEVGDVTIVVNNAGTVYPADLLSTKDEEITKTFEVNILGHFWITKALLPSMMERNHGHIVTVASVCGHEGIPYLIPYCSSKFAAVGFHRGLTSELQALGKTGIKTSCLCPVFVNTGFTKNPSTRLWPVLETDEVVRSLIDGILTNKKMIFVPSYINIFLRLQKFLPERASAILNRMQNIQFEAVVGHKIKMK

This experiment concerns the target Recombinant human 17β-HSD13 (Homo sapiens (Human), UniProt Q7Z5P4). Put plainly: 17β-HSD13 rapid-fire mass spectrometry assay (RF/MS assay). The class given is biochemical. The conditions noted are these: HSD17B13 80 nM, LTB4 10 μM, NAD+ 0.5 mM, RT 3 h, RF/MS readout. How it is done: 17β-HSD13 rapid-fire mass spectrometry assay (RF/MS assay). Recombinant human 17β-HSD13 was expressed and purified from sf9 cells at Charles River Labs (Saffron Walden, UK). […] The assays were quenched by adding 20 μL of 0.15% aqueous formic acid and the plates were frozen at −80° C. RF/MS analysis was performed at PureHoney Technologies (Billerica, MA) on a RapidFire RF300 system (Agilent Technologies, Inc.) coupled to an API 4000 triple quadrupole mass spectrometer (Sciex) equipped with Agilent RapidFire cartridge type A (C4). The mobile phase was 0.09% formic acid and 0.01% trifluoracetic acid in water (Buffer A) and 0.09% formic acid and 0.01% trifluoracetic acid in 80% aqueous acetonitrile (Buffer B). The RapidFire method conditions were the following: 250 ms aspirate, 3000 ms load/desalt, 4000 ms elute, and 500 ms re-equilibrate. RF-MS/MS was performed in negative polarity (−4500 V), the source temperature was 650° C., and gas 1 and gas 2 settings for nitrogen were set to 50. The curtain gas and collision gas were also nitrogen and were set to 20 and 12, respectively.
Data Analysis. 17β-HSD13 enzyme activity was measured as percent conversion of extracted ion counts and normalized to high and low controls to determine percent residual activity at various concentrations of test compounds. Data were fitted to normalized activity (variable slope) versus concentration fit in GraphPad Prism 7 to determine IC50. All experiments were run in duplicates.
With `COc1ccc(-c2nc3sc4c(O)cccc4c3c(=O)n2Cc2cc(C)no2)c(C2CC2)c1` [Example 66], the pIC50 was greater than 7.00. The figure for `COc1ccc(-c2nc3sc4c(O)cccc4c3c(=O)n2Cc2cnc(C)o2)c(C2CC2)c1` [Example 67] is greater than 7.00. The figure for `O=c1c2c(nc(-c3ccc(F)cc3C3CC3)n1Cc1ccno1)sc1c(O)cccc12` [Example 68] is greater than 7.00; for `O=c1c2c(nc(-c3ccc(F)cc3C3CC3)n1Cc1cnco1)sc1c(O)cccc12` [Example 69] it is greater than 7.00. Regarding `O=c1c2c(nc(-c3ccc(F)cc3C3CC3)n1Cc1cnoc1)sc1c(O)cccc12` [Example 70], the pIC50 was greater than 7.00.

For `COc1ccc(-c2nc3sc4c(OP(=O)(O)O)cccc4c3c(=O)n2Cc2nnn(C)n2)c(C2CC2)c1` [Example 71], the pIC50 was 5.00 to 6.00. Then `O=c1c2c(nc(-c3ccc(F)cc3C3CC3)n1CCn1ccc(C3CC3)n1)sc1c(O)cccc12` [Example 72], with 6.00 to 7.00; and `Cc1cc(Cn2c(-c3ccc(F)cc3C3CC3)nc3sc4c(O)cccc4c3c2=O)on1` [Example 73], with 5.00 to 6.00; and `Cc1ncc(Cn2c(-c3ccc(F)cc3C3CC3)nc3sc4c(O)cccc4c3c2=O)o1` [Example 75], with greater than 7.00. Regarding `O=c1c2c(nc(-c3ccc(F)cc3C3CC3)n1Cc1cc(C(F)(F)F)no1)sc1c(O)cccc12` [Example 77], the pIC50 was greater than 7.00.

On to `O=c1c2c(nc(-c3ccc(F)cc3C3CC3)n1CCn1cnnc1)sc1c(O)cccc12` [Example 78], for which the pIC50 is 6.00 to 7.00. The figure for `O=c1c2c(nc(-c3ccc(F)cc3C3CC3)n1CCn1nccn1)sc1c(O)cccc12` [Example 79] is greater than 7.00; for `O=c1c2c(nc(-c3ccc(F)cc3C3CC3)n1CCn1ccnn1)sc1c(O)cccc12` [Example 80] it is greater than 7.00. The figure for `O=c1c2c(nc(-c3ccc(F)cc3C3CC3)n1CCn1cnnn1)sc1c(O)cccc12` [Example 81] is greater than 7.00; for `CC(C)Oc1ccc(-c2nc3sc4c(O)cccc4c3c(=O)n2Cc2ccno2)c(C2CC2)c1` [Example 82] it is greater than 7.00; for `CC(C)Oc1ccc(-c2nc3sc4c(O)cccc4c3c(=O)n2Cc2cnco2)c(C2CC2)c1` [Example 83] it is greater than 7.00. As for `O=c1c2c(nc(-c3ccc(F)cc3C3CC3)n1CCCc1nccs1)sc1c(O)cccc12` [Example 84], the pIC50 is greater than 7.00.

With `O=c1c2c(nc(-c3ccc(F)cc3C3CC3)n1CCCc1nc3ccccc3s1)sc1c(O)cccc12` [Example 85], the negative-log IC50 (pIC50) is greater than 7.00. The figure for `O=c1c2c(nc(-c3ccc(F)cc3C3CC3)n1CCCc1nc3ccccc3o1)sc1c(O)cccc12` [Example 86] is greater than 7.00.

For the compound `COc1ccc(-c2nc3sc4c(OC(=O)C(C)C)cccc4c3c(=O)n2Cc2cnco2)c(C2CC2)c1` [Example 88], the pIC50 is 5.00 to 6.00. Then `COc1ccc(-c2nc3sc4c(OC(=O)C(C)(C)C)cccc4c3c(=O)n2Cc2cnco2)c(C2CC2)c1` [Example 89], with less than 5.00. The figure for `COc1ccc(-c2nc3sc4c(O)ccc(Cl)c4c3c(=O)n2Cc2cnco2)c(C2CC2)c1` [Example 91] is greater than 7.00.
